Data: patent publication US20260334439A1, “BCAT2 INHIBITORS” (Agios Pharmaceuticals, Inc., priority 2023, published 2026)

Experiments:
[1] = biological target: T1, BCAT2 (Homo sapiens, UniProt O15382); assay: BCAT2 in vitro enzyme inhibition assay (hBCAT2, glutamate dehydrogenase/diaphorase/resazurin coupled fluorescence read); format: biochemical; conditions: hBCAT2, 1 h preincubation at 25° C., one hour reaction; average where tested multiple times
T1 sequence (O15382 28-392): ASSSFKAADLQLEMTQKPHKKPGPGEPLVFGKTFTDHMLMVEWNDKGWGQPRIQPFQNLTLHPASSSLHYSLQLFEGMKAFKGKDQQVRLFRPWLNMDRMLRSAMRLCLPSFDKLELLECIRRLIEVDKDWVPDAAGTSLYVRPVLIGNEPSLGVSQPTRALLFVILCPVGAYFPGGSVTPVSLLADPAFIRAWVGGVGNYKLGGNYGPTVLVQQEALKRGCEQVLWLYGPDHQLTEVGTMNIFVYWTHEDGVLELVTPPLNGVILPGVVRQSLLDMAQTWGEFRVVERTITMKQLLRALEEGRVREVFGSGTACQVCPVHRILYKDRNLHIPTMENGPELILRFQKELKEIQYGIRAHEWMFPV
Procedure, shortened: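 Coupled GDH/diaphorase/resazurin fluorescence (Ex 540/Em 590) read after 1 h reaction at 25 °C, SDS-stopped; enzyme (0.33 μg/mL in mix) first preincubated 1 h with compound, 10-point 3-fold series from 100 μM final, Tris pH 8.0 buffer with NaCl, BSA; technical duplicates, averaged across tests.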

[2] = biological target: T1, BCAT2; assay: BCAT2 cell inhibition using engineered A549 cells (MUT KO, BCAT1 KO; 13C6-KMV formation by LC-MS/MS); format: cell-based; set-up: expressed endogenous BCAT2; endogenous in cells; host or cells: A549 cells, MUT knockout and BCAT1 knockout
Procedure, shortened: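 Medium 13C6-KMV formation is read by LC-MS/MS after PFBHA derivatization with d8-KMV internal standard. Cells are CRISPR MUT/BCAT1 double-knockout A549 expressing endogenous BCAT2, given compound 15 min before labelled isoleucine (800 uM, added 1:1) for 24 h. CTG viability run in parallel; replicates averaged.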

Compound	IC50 [1] [nM]	IC50 [2] [nM]	IC50 ([2]; read-out: BCAT2 Cell Inhibition (IC50), engineered A549 cells, 24 hours, 13C6-KMV in media, average where tested multiple times) [nM]
COc1ccc(Cl)cc1C(=O)N[C@@H]1C[C@H](n2c(-c3ccccc3F)nc3cnc(-c4nc[nH]n4)cc32)CN(C)C1 [Example 136, 5-chloro-N-((3R,5S)-5-(2-(2-fluorophenyl)-6-(1H-1,2,4-triazol-3-yl)-1H-imidazo[4,5-c]pyridin-1-yl)-1-methylpiperidin-3-yl)-2-methoxybenzamide]	< 100	100 to 500	
N#Cc1ccccc1-c1nc2cnc(-c3nc[nH]n3)cc2n1[C@@H]1CCC[C@H](N2Cc3ccc(F)cc3C2=O)C1 [Example 171, 2-(1-((1R,3S)-3-(6-fluoro-1-oxoisoindolin-2-yl)cyclohexyl)-6-(1H-1,2,4-triazol-3-yl)-1H-imidazo[4,5-c]pyridin-2-yl)benzonitrile]	< 100	< 100	
CN1C[C@@H](NC(=O)c2cc(F)ccn2)C[C@@H](n2c(-c3ccccc3F)nc3cnc(-c4nc[nH]n4)cc32)C1 [Example 133, 4-fluoro-N-((3S,5R)-5-(2-(2-fluorophenyl)-6-(1H-1,2,4-triazol-3-yl)-1H-imidazo[4,5-c]pyridin-1-yl)-1-methylpiperidin-3-yl)picolinamide]	100 to 500		> 1000
O=C1c2cc(F)ccc2CN1[C@H]1CCC[C@@H](n2c(-c3ccccc3OC(F)F)nc3cnc(-c4nc[nH]n4)cc32)C1 [compound 180]	< 100	< 100	
O=C(N[C@H]1CCC[C@@H](n2c(-c3ccccc3F)nc3cnc(-c4nc[nH]n4)cc32)C1)c1cc(F)ccn1 [Example 14, 4-fluoro-N-((1S,3R)-3-(2-(2-fluorophenyl)-6-(1H-1,2,4-triazol-3-yl)-1H-imidazo[4,5-c]pyridin-1-yl)cyclohexyl)picolinamide]	< 100	< 100	
